Laboratory results: patent publication US6290959A (New York University, dated 2001)

B1: bovine uroplakin II (mature) (other)
chain: ELVSVVDSGSGFTVTRLSAYQVTNLAPGTKYYISYLVTKGASTESSREIPMSTFPRRKAESIGLAMARTGGMVVITVLLSVAMFLLVLGLIIALALGARK

What was measured:
[1] = test system: type 1-fimbriated E. coli; assay: In vitro bacterial adherence assay: binding of 35S-labelled E. coli to immobilized bovine urothelial plaques (asymmetric unit membranes); conditions: 2x10^5 cpm; for effect of sugars on bacterial binding to bovine asymmetrical unit membranes: E. coli SH48 (type 1 only), preincubated with sugar, 0.2 μg immobilized bovine AUM
Method: Purified asymmetric unit membranes were suspended in PBS and incubated in 96-well polystyrene microtiter plates at room temperature for 30 minutes, then at 4° C. for 16 hours. All subsequent steps were carried out at room temperature. After being washed three times with PBS for two hours, the immobilized asymmetric membrane units were incubated with 2% BSA in PBS for two hours, and ^35 S-labelled bacteria were incubated in 2% BSA and 0.1% NaN3 for two hours. The wells were then washed four times with PBS, and the bound bacteria were dissolved in 1% SDS for 30 minutes and quantitated by scintillation counting. All binding studies were performed in triplicate.
Purified bovine urothelial plaques, consisting of asymmetric unit membranes that cover 70-80% of the urothelial apical surface, were immobilized on microtiter wells (0.2 microgram per well). The unoccupied binding sites were blocked with 3% BSA in PBS. BSA was used to coat the control wells. The E. coli strains used were J96, which express type 1 fimbriae as well as P fimbriae carrying the G-1 and G-2 adhesins; SH48, which expresses type 1 fimbriae only; HU849, which expresses P fimbriae carrying G-1 adhesin; IA2, which expresses P fimbriae carrying G-adhesins; and nonfimbriated P678-54.
^35 [S]methionine-labelled bacteria were added to each well (2×10^5 cpm in 10^7 bacteria suspended in PBS). After incubation at 25° C. for two hours, the wells were washed with PBS and the radioactivities of the bound bacteria, dissolved in 1% SDS, were counted. Each value represents the means of triplicates bracketed by the standard deviation (±15%). It should be noted that only the type 1-fimbriated J96 and SH48 strains, but not the P-expressing HU849 and IA2 or the nonfimbriated P678-54, adhered to the asymmetric unit membranes.
In FIG. 1B, the relative contribution of type 1 and P fimbriae in the binding of J96 to asymmetric unit membranes is shown. ^35 S-labelled J96 (2×10^5 cpm) were incubated with immobilized asymmetric unit membranes in the absence or the presence of 2% D-mannose.
To test the effects of sugars on the binding of type-1 fimbriated E. coli to bovine urothelial plaques, 2×10^5 cpm of radiolabeled E. coli (SH48) were preincubated with D-mannose (Man), methyl-α-D-mannopyranoside(MMP), or D-galactose (Gal) before they were incubated with 0.2 μg of immobilized bovine asymmetrical unit membranes.

[2] = test system: type 1-fimbriated bacteria; assay: Bacterial (gel) overlay assay: radiolabelled bacteria on SDS/PAGE-resolved uroplakins on nitrocellulose; assay type: binding, E. coli; conditions: bovine uroplakins on nitrocellulose, autoradiography
Method: Asymmetric unit membrane proteins were resolved by SDS/PAGE (17% acrylamide; acrylamide/bisacrylamide=10:1) and electrophoretically transferred to nitrocellulose. After a brief incubation in 3% BSA in PBS to block the unoccupied sites, the nitrocellulose sheet was incubated with ^35 [S]methionine-labelled bacteria in 2% BSA and 0.1% NaN3. After three washings in PBS, the nitrocellulose was air-dried and autoradiographed.
To determine which of the asymmetric membrane proteins are responsible for this binding, a gel overlay assay was performed. Uroplakins were resolved by SDS/PAGE (cf. FIGS. 5A and 5B), transferred to nitrocellulose, and incubated with radiolabelled bacteria. […] The two major bacterial binding proteins were identified as the two closely related uroplakin proteins, i.e., the 27 kDa-uroplakin Ia and the 28 kDa-uroplakin Ib, according to their sizes and immunoreactivities (FIG. 5B, lanes 1 and 2). […] To determine whether the carbohydrate moieties of uroplakin I proteins were responsible for the binding of the type 1 fimbriae, as one might expect from the inhibitory effects of mannose (cf. FIG. 4), the effects of deglycosylation were tested, results shown in FIGS. 5D and E. Endo H removed about […] of sugars from uroplakin I proteins (cf. FIG. 5D, lanes 2 and 5). […]

[3] = biological target: E. coli strain SH48, expressing type 1 fimbriae only (FimH adhesin) (E. coli, UniProt P08191); assay: overlay of radiolabelled bacteria on SDS/PAGE-resolved uroplakins on nitrocellulose

| Molecule | effect of sugars on bacterial binding to bovine asymmetrical unit membranes [1] | binding of J96 to asymmetric unit membranes in the presence of mannose ([1]; E. coli strain J96 (type 1 and P fimbriae), 2% D-mannose, immobilized bovine AUM) | inhibition of binding of type 1-fimbriated bacteria to uroplakin protein bands [2] | binding result [3] |
| --- | --- | --- | --- | --- |
| O=C[C@@H](O)[C@@H](O)[C@H](O)[C@H](O)CO [D-mannose] | greatly inhibited | completely blocked | inhibited | – |
| CO[C@H]1O[C@H](CO)[C@@H](O)[C@H](O)[C@@H]1O [methyl-α-D-mannopyranoside] | greatly inhibited | – | – | – |
| O=C[C@H](O)[C@@H](O)[C@@H](O)[C@H](O)CO [D-galactose] | not | – | not | – |
| B1 | – | – | – | no binding |
